Measured values reported in BindingDB's records for doi:10.1021/jm0003440 (Merck Frosst Centre For Therapeutic Research, 2001).

Experiment: Inhibitory activity tested against Human Cathepsin K receptor using bone resorption assay

**Q.** Which IC50 does the source give for `N#CN1CCC(NC(=O)OCc2ccccc2)C1` (stereo unspecified) [(1-Cyano-pyrrolidin-3-yl)-carbamic acid benzyl ester] here?
**A.** The IC50 was 1410 nM.
